pIC50: −log10 of the molar value. Bounds are passed on as bounds.

Assay [1] concerns HCV replicon I389luc-ubi-neo/NS3-3′/ET in ET (Huh-lucubineo-ET) cells. The experiment in a line: Replicon assay (Biological Example 2), luciferase readout. In kind it is cell-based. The note with it: Hepatitis C virus. How it is done:
A cell line, ET (Huh-lucubineo-ET) was used for screening of compounds for inhibiting HCV RNA dependent RNA polymerase. The ET cell line was stably transfected with RNA transcripts harboring a I389luc-ubi-neo/NS3-3′/ET; replicon with firefly luciferase-ubiquitin-neomycin phosphotransferase fusion protein and EMCV-IRES driven NS3-5B polyprotein containing the cell culture adaptive mutations (E1202G; T12801; K1846T) (Krieger at al, 2001 and unpublished). The ET cells were grown in DMEM (Dulbeco's Modified Eagle's Medium), supplemented with 10% fetal calf serum, 2 mM Glutamine, Penicillin (100 IU/mL)/Streptomycin (100 μg/mL), 1× nonessential amino acids, and 250 μg/mL G418 (“Geneticin”). Reagents were all available through Life Technologies (Bethesda, Md.). The cells were plated at 0.5-1.0×10^4 cells/well in the 96 well plates and incubated for 24 hrs before adding test compound. The compounds were added to the cells to achieve a final concentration of 0.1 nM to 50 μM and a final DMSO (dimethylsulfoxide) concentration of 0.5%. Luciferase activity was measured 48 hours later by adding a lysis buffer and the substrate (Catalog number Glo-lysis buffer E2661 and Bright-Glo luciferase system E2620 Promega, Madison, Wis.). Cells should not be too confluent during the assay. Percent inhibition of replication data was plotted relative to no compound control. To determine the EC50 (effective concentration at which 50% of the maximum inhibition was observed), a 10 point, 3-fold serial dilution for each compound was used, which spans a concentration range of […]. EC50 values were calculated by fitting % inhibition at each concentration to the following equation: % inhibition=100%/[(EC50/[I])^b+1] where b was Hill's coefficient.
In other aspects the EC50 was equal to or less than 10 μM. In still other aspects the EC50 was equal to or less than 1 μM.
In general terms: Replicon systems follow genome replication, usually without infectious particles.

The target of assay [2] is T1, HCV polymerase (Hepatitis C virus genotype 1b, UniProt Q9WMX2).
T1 construct: (His)6 (C); made in house; host or cells: XL-1 cells (E. coli, by own knowledge)
Kind of assay: Polymerase assay of Biological Example 1 (IC50 values of Table 3). In kind it is biochemical. The conditions noted are these: IC50 values of Table 3, polymerase assay of Biological Example 1; read-out: NS5B-enzyme3. From the text: A number of assays have been published to assess these activities. A general method that assesses the gross increase of HCV virus in culture was disclosed in U.S. Pat. No. 5,738,985 to Miles et al. In vitro assays have been reported in Ferrari et al. Jnl. of Vir., 73:1649-1654, 1999; Ishii et al., Hepatology, 29:1227-1235, 1999; Lohmann et al., Jnl of Bio. Chem., 274:10807-10815, 1999; and Yamashita et al., Jnl. of Bio. Chem., 273:15479-15486, 1998.
WO 97/12033, filed on Sep. 27, 1996, by Emory University, listing C. Hagedorn and A. Reinoldus as inventors, which claims priority to U.S. Provisional Patent Application Ser. No. 60/004,383, filed on September 1995, described an HCV polymerase assay that can be used to evaluate the activity of the of the compounds described herein. Another HCV polymerase assay has been reported by Bartholomeusz, et al., Hepatitis C Virus (HCV) RNA polymerase assay using cloned HCV non-structural proteins; Antiviral Therapy 1996:1 (Supp 4) 18-24.

[3] abbreviates: ET cells, luciferase activity 48 hours after compound.

In the case of `O=C(O)c1sc(-c2ccccc2)cc1N1C(=O)CN(S(=O)(=O)c2ccc(NCCO)nc2)CC1C1CCCCC1` (stereo not shown) [Compound 86, 3-{2-Cyclohexyl-4-[6-(2-hydroxy-ethylamino)-pyridine-3-sulfonyl]-6-oxo-piperazin-1-yl}-5-phenyl-thiophene-2-carboxylic acid], the pIC50 is at least 7.00 in assay [1] (setting [3]) and 8.22 in assay [2].
With `Cc1ccc(S(=O)(=O)N2CC(=O)N(c3cc(-c4ccccc4)sc3C(=O)O)[C@H](C3CCCCC3)C2)cc1` [Compound 18, 3-[(R)-2-Cyclohexyl-6-oxo-4-(toluene-4-sulfonyl)-piperazin-1-yl]-5-phenyl-thiophene-2-carboxylic acid], the pIC50 in assay [1] (between 100 nM and 5.0 uM) is 5.30 to 7.00; in assay [2], 8.70.
As for `Cc1ccc(-c2cc(N3C(=O)CN(S(=O)(=O)c4ccc(N5CCOC[C@H]5C)nc4)C[C@H]3C3CCCCC3)c(C(=O)O)s2)cc1` [Compound 197, 3-{(R)-2-Cyclohexyl-4-[6-((R)-3-methyl-morpholin-4-yl)-pyridine-3-sulfonyl]-6-oxo-piperazin-1-yl}-5-p-tolyl-thiophene-2-carboxylic acid], the pIC50 is at least 7.00 in assay [1] (setting [3]) and 8.34 in assay [2].
The like results for `O=C(O)c1sc(-c2ccc(F)cc2)cc1N1C(=O)CN(S(=O)(=O)c2ccc(N3CCCOCC3)nc2)C[C@H]1C1CCCCC1` [Compound 186, 3-[(R)-2-Cyclohexyl-4-(6-[1,4]oxazepan-4-yl-pyridine-3-sulfonyl)-6-oxo-piperazin-1-yl]-5-(4-fluoro-phenyl)-thiophene-2-carboxylic acid] were, in that order, at least 7.00 and 9.00.
Regarding `CN1CCN(c2ccc(S(=O)(=O)N3CC(=O)N(c4cc(-c5ccccc5)sc4C(=O)O)[C@H](C4CCCCC4)C3)cn2)CC1` [Compound 137, 3-{(R)-2-Cyclohexyl-4-[6-(4-methyl-piperazin-1-yl)-pyridine-3-sulfonyl]-6-oxo-piperazin-1-yl}-5-phenyl-thiophene-2-carboxylic acid], the results for the pIC50 in assay [1] (setting [3]) and in assay [2] were at least 7.00 and 8.82, respectively.
Turning to `CC(C)(C)C#Cc1cc(N2C(=O)OC[C@H]2C2CCCCC2)c(C(=O)O)s1` [Compound 181, 3-((R)-4-Cyclohexyl-2-oxo-oxazolidin-3-yl)-5-(3,3-dimethyl-but-1-ynyl)-thiophene-2-carboxylic acid], the pIC50 in assay [1] (between 100 nM and 5.0 uM) was 5.30 to 7.00; in assay [2], 8.52.
For `Cc1ccc(-c2cc(N3C(=O)CN(S(=O)(=O)c4ccc(N5CCC[C@H]5C)nc4)C[C@H]3C3CCCCC3)c(C(=O)O)s2)cc1` [Compound 180, 3-{(R)-2-Cyclohexyl-4-[6-((R)-2-methyl-pyrrolidin-1-yl)-pyridine-3-sulfonyl]-6-oxo-piperazin-1-yl}-5-p-tolyl-thiophene-2-carboxylic acid], the pIC50 in assay [1] (setting [3]) was at least 7.00; in assay [2], above 9.70.
The like results for `CC(C)N1CCN(c2ccc(S(=O)(=O)N3CC(=O)N(c4cc(-c5ccccc5)sc4C(=O)O)[C@H](C4CCCCC4)C3)cn2)CC1` [Compound 160, 3-{(R)-2-Cyclohexyl-4-[6-(4-isopropyl-piperazin-1-yl)-pyridine-3-sulfonyl]-6-oxo-piperazin-1-yl}-5-phenyl-thiophene-2-carboxylic acid] were, in that order, at least 7.00 and 9.00.
For `O=C(O)c1sc(-c2ccccc2)cc1N1C(=O)CN(S(=O)(=O)c2ccc(-c3cncnc3)nc2)C[C@H]1C1CCCCC1` [Compound 206, 3-[(R)-2-Cyclohexyl-6-oxo-4-(6-pyrimidin-5-yl-pyridine-3-sulfonyl)-piperazin-1-yl]-5-phenyl-thiophene-2-carboxylic acid], the pIC50 was 5.30 to 7.00 in assay [1] (between 100 nM and 5.0 uM); 9.00 in assay [2].
Consider `O=C(O)c1sc(-c2ccccc2)cc1N1C(=O)CN(S(=O)(=O)c2ccc(-c3ccc4c(c3)OCCCO4)nc2)C[C@H]1C1CCCCC1` [Compound 212, 3-{(R)-2-Cyclohexyl-4-[6-(3,4-dihydro-2H-benzo[b][1,4]dioxepin-7-yl)-pyridine-3-sulfonyl]-6-oxo-piperazin-1-yl}-5-phenyl-thiophene-2-carboxylic acid], for which the pIC50 in assay [1] (setting [3]) is at least 7.00; in assay [2] it was 8.70.
Regarding `Cc1ccc(-c2cc(N3C(=O)C(C)(O)CCC3C3CCCCC3)c(C(=O)O)s2)cc1` (stereo not shown) [Compound 324, 3-(6-Cyclohexyl-3-hydroxy-3-methyl-2-oxo-piperidin-1-yl)-5-p-tolyl-thiophene-2-carboxylic acid], the pIC50 in assay [1] (between 100 nM and 5.0 uM) was 5.30 to 7.00; in assay [2], 7.07.
For the molecule `C[C@@H](O)CC[C@@]1(C)OC[C@@H](C2CCCCC2)N(c2cc(C#CC(C)(C)C)sc2C(=O)O)C1=O` [Compound 321, 3-[(2R,5R)-5-Cyclohexyl-2-((R)-3-hydroxy-butyl)-2-methyl-3-oxo-morpholin-4-yl]-5-(3,3-dimethyl-but-1-ynyl)-thiophene-2-carboxylic acid], the figures for the pIC50 in assay [1] (setting [3]) and in assay [2] were at least 7.00 and 8.70, respectively.
As to `O=C(O)c1sc(-c2ccccc2)cc1N1C(=O)CCC1C1CCCCC1` (stereo not shown) [Compound 1, 3-(2-Cyclohexyl-5-oxo-pyrrolidin-1-yl)-5-phenyl-thiophene-2-carboxylic acid], the pIC50 in assay [1] (between 100 nM and 5.0 uM) was 5.30 to 7.00; in assay [2] it was 6.74.
Consider `O=C(N[C@H]1CC(=O)N(c2cc(-c3ccccc3)sc2C(=O)O)[C@H](C2CCCCC2)C1)c1ccccc1` [Compound 24, 3-((2S,4R)-4-Benzoylamino-2-cyclohexyl-6-oxo-piperidin-1-yl)-5-phenyl-thiophene-2-carboxylic acid], for which the pIC50 in assay [1] (between 100 nM and 5.0 uM) was 5.30 to 7.00; in assay [2] it was 7.35.
Regarding `N[C@H]1CC(=O)N(c2cc(-c3ccccc3)sc2C(=O)O)[C@@H](C2CCCCC2)C1` [Compound 23, 3-((2R,4R)-4-Amino-2-cyclohexyl-6-oxo-piperidin-1-yl)-5-phenyl-thiophene-2-carboxylic acid], the pIC50 in assay [1] (setting [3]) was at most 5.30; in assay [2] it was 6.61.
`CCc1ccc(S(=O)(=O)N2CC(=O)N(c3cc(-c4ccccc4)sc3C(=O)O)C(C3CCCCC3)C2)cc1` (stereo not shown) [Compound 56, 3-[2-Cyclohexyl-4-(4-ethyl-benzenesulfonyl)-6-oxo-piperazin-1-yl]-5-phenyl-thiophene-2-carboxylic acid]: the pIC50 in assay [1] (between 100 nM and 5.0 uM) is 5.30 to 7.00; in assay [2], 8.15.
The like results for `Cc1occc1-c1ccc(S(=O)(=O)N2CC(=O)N(c3cc(-c4ccccc4)sc3C(=O)O)[C@H](C3CCCCC3)C2)cn1` [Compound 211, 3-{(R)-2-Cyclohexyl-4-[6-(2-methyl-furan-3-yl)-pyridine-3-sulfonyl]-6-oxo-piperazin-1-yl}-5-phenyl-thiophene-2-carboxylic acid] were, in that order, 5.30 to 7.00 and 8.70.
As to `O=C(O)c1sc(-c2ccccc2)cc1N1C(=O)CN(S(=O)(=O)c2ccc(-c3ccc(CN4CCOCC4)cc3)nc2)C[C@H]1C1CCCCC1` [Compound 208, 3-{(R)-2-Cyclohexyl-4-[6-(4-morpholin-4-ylmethyl-phenyl)-pyridine-3-sulfonyl]-6-oxo-piperazin-1-yl}-5-phenyl-thiophene-2-carboxylic acid], the pIC50 is at least 7.00 in assay [1] (setting [3]) and 8.85 in assay [2].
Consider `O=C(O)c1sc(-c2ccccc2)cc1N1C(=O)CN(S(=O)(=O)c2ccc(N3CCCC3)nc2)C[C@H]1C1CCCCC1` [Compound 135, 3-[(R)-2-Cyclohexyl-6-oxo-4-(6-pyrrolidin-1-yl-pyridine-3-sulfonyl)-piperazin-1-yl]-5-phenyl-thiophene-2-carboxylic acid], for which the pIC50 is at least 7.00 in assay [1] (setting [3]) and 8.63 in assay [2].
`CC(C)Nc1ccc(S(=O)(=O)N2CC(=O)N(c3cc(-c4ccccc4)sc3C(=O)O)C(C3CCCCC3)C2)cn1` (stereo not shown) [Compound 85, 3-[2-Cyclohexyl-4-(6-isopropylamino-pyridine-3-sulfonyl)-6-oxo-piperazin-1-yl]-5-phenyl-thiophene-2-carboxylic acid]: the pIC50 in assay [1] (setting [3]) is at least 7.00; in assay [2], 8.70.
